Results as given in patent US20120142766A1, “SUBSTITUTED 1,3-DIOXANES AND THEIR USES” (EVOLVA SA, priority 2007, published 2012).

How the values were obtained:
[1] = biological target: T1, Thromboxane synthase (Homo sapiens, UniProt P24557); test: Human platelet thromboxane synthase assay; assay type: biochemical
T1 construct: Human Platelet Thromboxane Synthase Assay; from tissue; host or cells: human platelets
T1 sequence (P24557 1-533): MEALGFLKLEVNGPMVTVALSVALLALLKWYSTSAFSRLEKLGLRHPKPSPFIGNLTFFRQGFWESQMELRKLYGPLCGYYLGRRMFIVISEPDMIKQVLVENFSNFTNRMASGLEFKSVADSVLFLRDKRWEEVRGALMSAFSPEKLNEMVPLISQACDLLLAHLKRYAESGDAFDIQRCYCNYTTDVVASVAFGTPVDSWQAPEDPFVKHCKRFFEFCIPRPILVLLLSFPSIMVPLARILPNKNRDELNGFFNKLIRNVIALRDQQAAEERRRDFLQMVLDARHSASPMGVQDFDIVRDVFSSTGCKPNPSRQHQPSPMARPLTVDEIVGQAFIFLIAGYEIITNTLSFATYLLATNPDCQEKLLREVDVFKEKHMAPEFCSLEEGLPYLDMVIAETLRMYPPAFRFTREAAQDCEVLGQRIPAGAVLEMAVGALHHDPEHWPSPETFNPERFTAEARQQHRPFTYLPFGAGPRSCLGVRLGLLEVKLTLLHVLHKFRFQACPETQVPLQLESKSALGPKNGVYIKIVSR
Description: The compounds were tested for thromboxane synthase inhibition essentially as described by Borsch-Haubold A G, Pasquet S, Watson S P. (1998) Direct inhibition of cyclooxygenase-1 and -2 by the kinase inhibitors SB 203580 and PD 98059. […] 1. Imidazole derivatives. J Med. Chem. (10):1139-48 according to the following:
Pre-incubation time, temp: 15 minutes at 25° C. Incubation time, temp: 3 minutes at 25° C.
Incubation Buffer: 10 mM Tris-HCl, pH 7.4
Quantification Method: EIA quantification of TxB2

[2] = tested on: Human platelet rich plasma; test: TP receptor platelet aggregation, human (U-46619-induced); assay type: cell-based; details: 3 μM U-46619-induced
Description: (§1) Thrombosis Research 33:277-288.
TP Receptor Platelet Aggregation—Human:
Human (60±10 kg) platelet rich plasma
Assay. Inhibition of 3 μM U-46619-induced platelet aggregation Incubation Time, Temp: 5 minutes at 37° C. Incubation Buffer Trisodium Citrate (0.13 M)-treated fresh platelet rich plasma
(§2) Time of Assessment: 5 minutes
(§3) Quantification Method Optical Density Change

[3] = tested on: New Zealand Rabbit platelet rich plasma; test: TP receptor platelet aggregation, rabbit (U-46619-induced); assay type: cell-based
Description: as §1
TP Receptor Platelet Aggregation—Rabbit:
New Zealand Rabbit (2.75±0.25 kg) platelet rich plasma
Assay: Inhibition of 1.5 μM U-46619-induced platelet aggregation Incubation Time, Temp: 5 minutes at 37° C. Incubation Buffer Trisodium Citrate (0.13 M)-treated platelet rich plasma
as §2, §3

[4] = biological target: T2, Human Recombinant (E. coli) PPARgamma (Homo sapiens, UniProt P37231); test: PPAR gamma binding assay ([3H]-rosiglitazone); details: for Ki / IC50: [3H]-rosiglitazone 10 nM; for Ki: Cheng Prusoff, read-out: PPARγ binding Ki; for IC50: read-out: PPARγ binding IC50
T2 construct: host or cells: E. coli
T2 sequence (P37231 1-505): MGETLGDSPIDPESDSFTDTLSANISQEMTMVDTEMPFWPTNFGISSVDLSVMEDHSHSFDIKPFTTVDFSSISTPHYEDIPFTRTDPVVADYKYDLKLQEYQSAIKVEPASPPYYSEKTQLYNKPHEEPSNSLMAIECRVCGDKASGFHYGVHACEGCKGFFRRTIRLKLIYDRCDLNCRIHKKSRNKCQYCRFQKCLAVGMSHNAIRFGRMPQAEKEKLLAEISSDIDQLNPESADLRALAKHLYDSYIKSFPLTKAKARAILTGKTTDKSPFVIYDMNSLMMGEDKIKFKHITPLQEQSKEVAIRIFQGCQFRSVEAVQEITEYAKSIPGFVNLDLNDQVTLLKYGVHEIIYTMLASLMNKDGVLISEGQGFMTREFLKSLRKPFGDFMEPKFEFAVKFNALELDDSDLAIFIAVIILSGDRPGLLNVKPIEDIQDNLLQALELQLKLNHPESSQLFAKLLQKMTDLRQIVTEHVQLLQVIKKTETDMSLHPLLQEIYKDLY
Description: Incubation: 120 min. at 4° C.
The results are expressed as a percent of control specific binding ((measured specific binding/control specific binding)×100) obtained in the presence of the test compounds. The IC50 values (concentration causing a half-maximal inhibition of control specific binding) and Hill coefficients (nil) were determined by non-linear regression analysis of the competition curves generated with mean replicate values using Hill equation curve fitting (Y=D+[(A−D)/(1+(C/C50)nH)], where Y=specific binding, D=minimum specific binding, A=maximum specific binding, C=compound concentration, C50=IC50, and nH=slope factor). This analysis was performed using a software developed at Cerep (Hill software) and validated by comparison with data generated by the commercial software SigmaPlot® 4.0 for Windows® (© 1997 by SPSS Inc.). The inhibition constants (Ki) were calculated using the Cheng Prusoff equation (Ki=IC50/(1+(L/KD)), where L=concentration of radioligand in the assay, and KD=affinity of the radioligand for the receptor).

[5] = biological target: T3, Thromboxane receptor (TP) (Homo sapiens, UniProt P21731); test: TP receptor radioligand binding ([3H] SQ-29548); details: Human recombinant HEK-293 cells
T3 construct: expressed in transfected cells; host or cells: HEK-293
T3 sequence (P21731 1-343): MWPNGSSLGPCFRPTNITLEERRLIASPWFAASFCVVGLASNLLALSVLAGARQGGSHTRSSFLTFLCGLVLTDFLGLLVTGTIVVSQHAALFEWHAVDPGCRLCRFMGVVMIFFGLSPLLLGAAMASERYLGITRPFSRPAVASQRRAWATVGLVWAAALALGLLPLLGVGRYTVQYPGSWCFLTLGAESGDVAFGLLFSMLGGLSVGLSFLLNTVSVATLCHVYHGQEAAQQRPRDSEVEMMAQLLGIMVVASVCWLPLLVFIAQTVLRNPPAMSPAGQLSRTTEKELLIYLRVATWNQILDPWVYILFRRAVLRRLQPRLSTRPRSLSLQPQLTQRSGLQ
Description: The compounds were tested on radioligand binding assays for thromboxane receptor binding essentially as described by Hedberg et al. (1988) J. Pharmacol. Exp. Ther. 245:786-792 and Saussy et al. (1986) J. Biol. Chem. 261: 3025-3029 according to the following:
TP Receptor Radioligand Binding Studies:
Human recombinant HEK-293 cells,
Incubation Time, Temp: 30 minutes at 25° C.
Incubation Buffer: 50 mM Tris-HCl, pH 7.4, 154 mM NaCl
Non-Specific Ligand: 1 μM SQ-29548
The data were transformed to semi-log and then analysed using non-linear regression to a four-parameter dose-response curve Y=Bottom+(Top−Bottom)/(1+10̂((LogEC50−X)*HillSlope)) using the log(agonist) vs. response—Variable slope function of GraphPad Prism software (http://graphpad.com/help/prism5/prism5help.html?usitignonlinear_regression_step_by_s.htm).

[6] = tested on: arterial thrombosis in a mouse model; test: Arterial thrombosis mouse model (FeCl3 on femoral artery); assay type: in vivo; details: dose not given
Description: The solutions are diluted 3.3-fold in saline and 100 μl/25 g is injected. Thus, the above-mentioned doses of 100 and 300 mg/kg of compound correspond to final doses of 30 and 100 mg/kg.
During the experiments, a soluble salt of the drug is provided (potassium salt of compound C), diluted in saline. Of this formulation, 100 μl/25 g is injected i.v. in the tail vein (dose of 100 mg/kg).
Solutions are injected (100 μl/25 g body weight) i.v. in the tail vein over 2 min to obtain doses of each compound of 30 mg/kg and 100 mg/kg. Aspirin is given the same way at a dose of 200 mg/kg. Clopidogrel is administered by oral gavage at a dose of 20 mg/kg at 6-7 hours prior to the experiment. The animals assigned to each group are matched for body weight. Mice are typically 8-10 weeks old males and are in a 100% Swiss genetic background.
The flow in each image is expressed as a percentage of that at the contralateral side, and data are averaged for all 120 images to determine total flow. The same analysis is performed for 10 min intervals (which gives essentially the same information as the area under the curve). […] Flow before treatment is recorded as 100%, and that in occluded arteries as 0%. At the end of the experiment, blood is collected on 0.01M citrate by heart puncture for determination of blood cell counts. Plasma is prepared by centrifugation and stored at −20° C. for determination of drug levels.
Statistical analysis for differences between two groups is performed by non-parametric Student t-test. Occlusion times >30 min were considered equal to 30 min for statistical analysis. Significance is set at p<0.05.

Row | Structure (SMILES) | Thromboxane synthase Human platelet Inhibition (%) ([1]; 10 μM) | inhibition at 10 µM ([1]; 10 μM) [%] | inhibition at 30 µM ([2]; 30 μM) [%] | inhibition at 100 µM ([3]; Oryctolagus cuniculus, Platelet, 0.1 mM, 1.5 μM U-46619-induced) [%] | PPARγ binding (in words) ([4]; at 30 μM) | IC50 [1] [µM] | inhibition at 5 µM ([1]; 5 μM) [%] | Inhibition of thromboxane synthase (in words) ([1]; Table 2) | inhibition at 10 µM [5] [%] | IC50 ([5]; 5 nM [3H] SQ-29548) [µM] | Ki ([5]; 5 nM [3H] SQ-29548) [µM] | Occlusion time [6] | Total blood flow [6] | inhibition at 30 µM ([3]; Oryctolagus cuniculus, Platelet, 30 μM, 1.5 μM U-46619-induced) [%] | Inhibition of platelet aggregation (in words) ([3]; Table 2) | Ki [4] [µM] | IC50 [4] [µM] | PPARgamma binding compared with Compound A (in words) ([4]; summary of Table 3) | IC50 [2] [µM]
1 | O=C(O)CC/C=C\C[C@H]1CO[C@@H](c2ccccc2Cl)O[C@H]1c1ccccc1O [Compound B, (Z)-6-((2R,4R,5S)-2-(2-chlorophenyl)-4-(2-hydroxyphenyl)-1,3-dioxan-5-yl)hex-4-enoic acid] | 28 | 25 | 13 | 15 | no binding |  |  |  |  |  |  |  |  |  |  |  |  |  | 
2 | COc1ccc(Oc2ccccc2C2OC[C@@H](C/C=C\CCC(=O)O)[C@@H](c3ccccc3O)O2)cc1 (stereo partly drawn) [Compound 1] |  |  |  |  |  | 0.354 | 71 | inhibitors of thromboxane synthase | 101 | 0.00125 | 0.00082 | prolongs the occlusion time | improves total blood flow | 96 | potent inhibitors of platelet aggregation | 0.8 | 2.3 | at least as well as Compound A | 
3 | O=C(O)CC/C=C\CC1COC(c2ccccc2Cl)OC1c1ccccc1O (racemic) [Compound A, (Z)-6-(-2-(2-chlorophenyl)-4-(2-hydroxyphenyl)-1,3-dioxan-5-yl)hex-4-enoic acid] |  | 16 |  |  |  | 31.9 |  |  | 105 |  |  |  |  |  |  | 4.8 | 13 |  | 1.5
